Measurements: patent US8519134B2, “Aryl-pyridine derivatives as aldosterone synthase inhibitors” (Novartis AG, priority 2009, dated 2013)
Where a name gives a salt, the structure may show the parent alone.

Tests used:
CYP11B1(cortisol) = biological target: T1, CYP11B1(cortisol) (Homo sapiens, UniProt P15538); assay: Inhibition of cortisol production in NCI-H295R cells; format: cell-based; settings: inhibitory activity on cortisol production, read-out: Cortisol (cell)
T1 construct: Thus, the NCI-H295R cells have CYP11 B1 (steroid 11 β-hydroxylase); host or cells: NCI-H295R (human adrenocortical carcinoma)
T1 sequence (P15538 25-503): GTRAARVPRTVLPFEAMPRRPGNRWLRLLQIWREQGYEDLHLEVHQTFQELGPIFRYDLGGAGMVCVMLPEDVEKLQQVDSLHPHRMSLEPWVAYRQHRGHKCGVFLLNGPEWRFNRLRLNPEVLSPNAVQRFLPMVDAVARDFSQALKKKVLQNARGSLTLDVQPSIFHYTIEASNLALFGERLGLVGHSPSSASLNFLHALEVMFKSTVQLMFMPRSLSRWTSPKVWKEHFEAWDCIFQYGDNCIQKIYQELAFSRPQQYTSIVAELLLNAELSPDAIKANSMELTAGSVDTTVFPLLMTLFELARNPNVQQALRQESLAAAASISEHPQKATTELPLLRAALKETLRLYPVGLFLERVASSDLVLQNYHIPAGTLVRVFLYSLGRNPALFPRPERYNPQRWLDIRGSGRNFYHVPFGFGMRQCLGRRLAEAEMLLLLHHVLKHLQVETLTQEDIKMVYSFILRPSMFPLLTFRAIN
Source text: The in vitro inhibitory activities for CYP11B1 can be determined by the following assay.
The cell line NCI-H295R was originally isolated from an adrenocortical carcinoma and has been characterized in the literature through the stimulable secretion of steroid hormones and the presence of the enymes essential for steroidogenesis. Thus, the NCI-H295R cells have CYP11 B1 (steroid 11 β-hydroxylase). The cells show the physiological property of zonally undifferentiated human foetal adrenocortical cells which, however, have the capacity to produce the steroid hormones which are formed in the three, phenotypically distinguishable zones in the adult adrenal cortex.
The NCI-H295R cells (American Type Culture Collection, ATCC, Rockville, Md., USA) are grown in Dulbeoco's Modified Eagle'Ham F-12 Medium (DME/F12), which has been supplemented with Ulroser SF Serum (Soprachem, Cergy-Saint-Christophe, France), insulin, transferrin, selenite (I-T-S, Becton Dickinson Biosiences, Franklin lakes, NJ, USA) and antibiotics in 75 cm^2 cell culture vessels at 37° C. and in a 95% air-5% carbon dioxide atmosphere. The cells are subsequently transferred for colony formation into a 24-well incubation vessel. They are cultivated there in DME/F12 medium, which is now supplemented with 0.1% bovine serum instead of Ultroser SF for 24 hours. The experiment is initiated by cultivating the cells in DME/F12 medium which is supplemented with 0.1% bovine serum albumin and test compound, in the presence or absence of cell stimulants, for 72 hours. The test substance is added in a concentration range from 0.2 nanomolar to […]. Cell stimulants which can be used are angiotensin 11 ([…] or 100 nanomolar), potassium ions (16 millimolar), forskolin (10 micromolar) or a combination of two stimulants.
The excretion of aldosterone, cortisol, corticosterone and estradiol/estrone into the culture medium can be detected and quantified by commercially available, specific monoclonal antibodies in radioimmunoassays in accordance with the manufacturers instructions.
Inhibition of the release of certain steroids can be used as a measure of the respective enzyme inhibition by the added test compounds. The dose-dependent inhibition of enzymic activity by a compound is calculated by means of an inhibition plot which is characterized by an IC50.
The IC50 values for active test compounds are ascertained by a simple linear regression analysis in order to construct inhibition plots without data weighting. The inhibition plot is calculated by fitting a 4-parameter logistic function to the raw data points using the least squares method. The equation of the 4-parameter logistic function is calculated as follows: Y=(d−a)/((1+(x/c)b))+a, where: a=minimum data level, b=gradient, I […], d=maximum data level, x=inhibitor concentration.
The inhibition activity of CYP11B1 production can also be expressed in percentage inhibition (% inhibition) at a given concentration (e.g. % inhibition at 1 μM), which is the cortisol level when cell is treated with the given concentration of a compound of the invention (e.g. concentration of 1 μM) versus the cortisol excretion when cell is free of the compound of the invention. % inhibition cortisol production=[(Y′−X′)/Y′]×100 wherein X′ is the level of cortisol when the cell is treated with a compound according to anyone of Formulae I to V, or a pharmaceutically acceptable salt thereof; and Y′ is the level of cortisol when the cell is free of compound according to anyone of Formulae I to V.

CYP11B2 (aldosterone) = biological target: T2, CYP11B2 (aldosterone) (Homo sapiens, UniProt P19099); assay: Inhibition of aldosterone production in NCI-H295R cells (Ang II stimulated, SPA); format: cell-based; settings: inhibitory activity on aldosterone production, read-out: Aldosterone (cell)
T2 construct: host or cells: NCI-H295R (human adrenocortical carcinoma)
T2 sequence (P19099 25-503): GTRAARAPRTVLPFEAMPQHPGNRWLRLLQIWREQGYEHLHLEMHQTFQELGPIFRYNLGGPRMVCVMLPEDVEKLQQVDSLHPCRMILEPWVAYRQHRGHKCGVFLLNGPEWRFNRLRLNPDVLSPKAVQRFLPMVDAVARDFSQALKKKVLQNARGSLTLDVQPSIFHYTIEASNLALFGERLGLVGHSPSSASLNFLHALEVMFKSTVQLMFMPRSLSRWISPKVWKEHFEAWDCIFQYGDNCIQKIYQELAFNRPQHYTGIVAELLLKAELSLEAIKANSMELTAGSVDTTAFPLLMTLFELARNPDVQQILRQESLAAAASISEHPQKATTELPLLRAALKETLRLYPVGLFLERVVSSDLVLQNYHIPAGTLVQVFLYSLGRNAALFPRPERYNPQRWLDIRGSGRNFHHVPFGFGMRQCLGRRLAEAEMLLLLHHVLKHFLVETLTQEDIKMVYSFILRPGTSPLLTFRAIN
Source text: In particular, the aldosterone synthase inhibitory activities in vitro can be determined by the following assay.
Human adrenocortical carcinoma NCI-H295R cell line was obtained from American Type Culture Collection (Manassas, Va.). Insulin/transferrin/selenium (ITS)-A supplement (100×), DMEM/F-12, antibiotic/antimycotic (100×), and fetal bovine serum (FBS) were purchased from Invitrogen (Carlsbad, Calif.). Anti-mouse PVT scintillation proximity assay (SPA) beads and NBS 96-well plates were obtained from GE Health Sciences (Piscataway, N.J.) and Corning (Acton, Mass.), respectively. Solid black 96-well flat bottom plates were purchased from Costar (Corning, N.Y.). Aldosterone and angiotensin (Ang II) were purchased from Sigma (St. Louis, Mo.). D-[1,2,6,7-^3H(N)]aldosterone was acquired from PerkinElmer (Boston, Mass.). Nu-serum was a product of BD Biosciences (Franklin Lakes, N.J.).
For in vitro measurement of aldosterone activity, human adrenocortical carcinoma NCI-H295R cells are seeded in NBS 96-well plates at a density of 25,000 cells/well in 100 μl of a growth medium containing DMEM/F12 supplemented with 10% FCS, 2.5% Nu-serum, 1 μg ITS/ml, and 1× antibiotic/antimycotic. The medium is changed after culturing for 3 days at 37° C. under an atmosphere of 5% CO2/95% air. On the following day, cells are rinsed with 100 μl of phosphate-buffered saline (PBS) and incubated with 100 μl of treatment medium containing 1 μM Ang II and a compound at different concentrations in quadruplicate wells at 37° C. for 24 hr. At the end of incubation, 50 μl of medium is withdrawn from each well for measurement of aldosterone production by an SPA using mouse anti-aldosterone monoclonal antibodies.
Measurement of aldosterone activity can also be performed using a 96-well plate format. Each test sample is incubated with 0.02 μCi of D-[1,2,6,7-^3H(N)]aldosterone and 0.3 μg of anti-aldosterone antibody in PBS containing 0.1% Triton X-100, 0.1% bovine serum albumin, and 12% glycerol in a total volume of 200 μl at room temperature for 1 hr. Anti-mouse PVT SPA beads (50 μl) are then added to each well and incubated overnight at room temperature prior to counting in a Microbeta plate counter. The amount of aldosterone in each sample is calculated by comparing with a standard curve generated using known quantities of the hormone.
The inhibition activity of aldosterone production can also be expressed in percentage inhibition (% inhibition) at a given concentration (e.g. % inhibition at 1 μM), which is the aldosterone level when the cell is treated with the given concentration of a compound of this invention (e.g. concentration of 1 μM) versus the aldosterone excretion when cell is free of the compound of the invention: % inhibition aldosterone production=[(Y−X)/Y]×100 wherein X is the level of aldosterone when the cell is treated with a compound according to anyone of Formulae I to V, or a pharmaceutically acceptable salt thereof; and Y is the level of aldosterone when the cell is free of compound according to anyone of Formulae I to V.

| SMILES | IC50 (CYP11B1(cortisol)) [nM] | IC50 (CYP11B2 (aldosterone)) [nM] |
| --- | --- | --- |
| CC(O)c1c(F)cncc1-c1ccc2cc(C#N)ccc2c1 (single isomer, unassigned) [5 (enantiomer-1), 6-(5-fluoro-4-(1-hydroxyethyl)pyridin-3-yl)-2-naphthonitrile] | 367 | 41.5 |
| CC(O)c1c(F)cncc1-c1cc2cc(Cl)c(F)cc2o1 (single isomer, unassigned) [Example 13d (enantiomer-2), 1-(3-(5-chloro-6-fluorobenzofuran-2-yl)-5-fluoropyridin-4-yl)ethanol] | 1070 | 2.5 |
| COc1cc(-c2cnccc2C(C)O)ccc1C#N (single isomer, unassigned) [Example 14 (enantiomer-1)] | 3390 | 132 |
| CC(O)c1c(F)cncc1-c1ccc(C#N)c(Cl)c1 (single isomer, unassigned) [Example 16 (enantiomer-2)] | 9420 | 106 |
| N#Cc1ccc(-c2cnccc2C2CCO2)cc1Cl (single isomer, unassigned) [Example 28 (enantiomer-1), 2-chloro-4-(4-(oxetan-2-yl)pyridin-3-yl)benzonitrile] | 783 | 23.5 |

The next lines start with the values.

| IC50 (CYP11B1(cortisol)) [nM] | IC50 (CYP11B2 (aldosterone)) [nM] | SMILES |
| --- | --- | --- |
|  | 261 | CC1OC(=O)c2cncc(-c3ccc(C#N)c(Cl)c3)c21 (stereo not shown) [Example 24, 2-chloro-4-(1-methyl-3-oxo-1,3-dihydrofuro[3,4-c]pyridin-7-yl)benzonitrile] |
| 4240 | 144 | CC(C)OCC(O)c1c(F)cncc1-c1ccc(C#N)c(Cl)c1 (stereo not shown) [Example 30, 2-Chloro-4-[5-fluoro-4-(1-hydroxy-2-isopropoxy-ethyl)-pyridin-3-yl]-benzonitrile hydrochloride] |
| 15000 | 154 | CC(C)(O)c1c(F)cncc1-c1ccc(C#N)c(Cl)c1 [Example 32, 2-Chloro-4-[5-fluoro-4-(1-hydroxy-1-methyl-ethyl)-pyridin-3-yl]-benzonitrile] |
| 12600 | 120 | Cn1c(-c2cnccc2CO)nc2ccc(Cl)cc21 [Example 37, [3-(6-Chloro-1-methyl-1H-benzoimidazol-2-yl)-pyridin-4-yl]-methanol] |
| 672 | 76.5 | CC(O)c1ccncc1-c1ccc(Cl)c(Cl)c1 (stereo not shown) [Example 46, 1-[3-(3,4-Dichloro-phenyl)-pyridin-4-yl]ethanol] |
